In brackets after ≈: the same amount, converted by molar mass.
Legend:
[1] = target: Keap1/Nrf2 (Homo sapiens, UniProt Q14145); experiment: Inhibition of Nrf2-Keap1 Kelch domain (unknown origin) protein-protein interaction in presence of biotin labeled 16mer ETGE peptide AFFAQLQLDEETGEFL; assay type: protein assay
[2] = Apparent permeability in human Caco-2 cells at 25 micromol/L incubated for 2 hrs by LC/MS/MS analysis; assay type: ADME, cell-based; settings: dose 25 µmol/L
[3] = Metabolic stability in rat liver microsomes assessed as parent compound remaining at 5 uM measured after 60 mins; assay type: ADME, Microsome; settings: read-out: Stability
[4] = Solubility of compound in FASSIF at pH 6.5 incubated for 4 hrs by LC/MS analysis; assay type: ADME
[5] = Solubility of compound in FeSSIF at pH 5 incubated for 4 hrs by LC/MS analysis; assay type: ADME
[6] = Metabolic stability in human liver microsomes assessed as parent compound remaining at 5 uM measured after 60 mins; assay type: ADME, Microsome; settings: read-out: Stability
[7] = target: Kelch-like ECH-associated protein 1 (Homo sapiens) (UniProt Q14145)
Sequence of Kelch-like ECH-associated protein 1 (Homo sapiens) (Q14145 whole entry, the tested form may be a part): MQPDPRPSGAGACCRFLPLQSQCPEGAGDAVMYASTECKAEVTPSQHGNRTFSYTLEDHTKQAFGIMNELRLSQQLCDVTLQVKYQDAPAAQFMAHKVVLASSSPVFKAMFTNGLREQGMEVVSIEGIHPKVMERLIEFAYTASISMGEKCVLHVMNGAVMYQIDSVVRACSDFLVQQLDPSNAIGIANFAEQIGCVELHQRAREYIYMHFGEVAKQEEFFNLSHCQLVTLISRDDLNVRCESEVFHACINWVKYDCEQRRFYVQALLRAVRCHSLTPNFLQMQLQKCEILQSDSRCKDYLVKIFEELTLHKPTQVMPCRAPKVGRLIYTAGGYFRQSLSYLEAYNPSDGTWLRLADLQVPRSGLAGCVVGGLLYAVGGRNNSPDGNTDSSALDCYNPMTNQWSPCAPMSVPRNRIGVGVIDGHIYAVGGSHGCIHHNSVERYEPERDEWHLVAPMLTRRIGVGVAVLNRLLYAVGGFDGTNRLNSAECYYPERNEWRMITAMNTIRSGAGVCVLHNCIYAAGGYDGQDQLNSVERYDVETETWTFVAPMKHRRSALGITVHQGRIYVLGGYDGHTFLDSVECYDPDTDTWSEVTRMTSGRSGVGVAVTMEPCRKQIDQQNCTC
Description: Binding affinity to Keap1 Kelch domain (unknown origin) assessed as change in enthalpy by isothermal titration calorimetry assay

[8] = target: Kelch-like ECH-associated protein 1 (Homo sapiens) (UniProt Q14145); experiment: Binding affinity to Keap1 Kelch domain (unknown origin) assessed as change in entropy by isothermal titration calorimetry assay
[9] = target: Kelch-like ECH-associated protein 1 (Homo sapiens) (UniProt Q14145); remark: listed apart in the source
Description: Binding affinity to Keap1 Kelch domain (unknown origin) assessed as change in free energy by isothermal titration calorimetry assay

[10] = cells; settings: Homo sapiens, HRMC, 18 h
Description: Upregulation of HO-1 expression in human HRMC cells incubated for 18 hrs by ELISA assay

[11] = Volume of distribution in CD(SD) rat at 1 mg/kg, iv measured upto 25 hrs; assay type: ADME, organism-based; settings: in vivo
[12] = AUC in CD(SD) rat at 3 mg/kg, po measured upto 25 hrs; assay type: ADME, organism-based; set-up: time < 25 hrs, dose 3 mg/kg, route po; settings: in vivo
[13] = Total clearance in CD(SD) rat at 1 mg/kg, iv measured upto 25 hrs; assay type: ADME, organism-based; settings: in vivo
[14] = MRT in CD(SD) rat at 1 mg/kg, iv measured upto 25 hrs; assay type: ADME, organism-based; settings: in vivo
[15] = Half life in CD(SD) rat at 1 mg/kg, iv measured upto 25 hrs; assay type: ADME, organism-based; settings: in vivo
[16] = Tmax in CD(SD) rat at 3 mg/kg, po measured upto 25 hrs; assay type: ADME, organism-based; settings: in vivo
[17] = AUC in CD(SD) rat at 1 mg/kg, iv measured upto 25 hrs; assay type: ADME, organism-based; set-up: time < 25 hrs, dose 1 mg/kg, route iv; settings: in vivo
[18] = Oral bioavailability in CD(SD) rat at 3 mg/kg measured upto 25 hrs; assay type: ADME, organism-based; settings: in vivo
[19] = MRT in CD(SD) rat at 3 mg/kg, po measured upto 25 hrs; assay type: ADME, organism-based; settings: in vivo
[20] = target: KEAP1/NRF2 (Rattus norvegicus) (UniProt O54968+P57790); experiment: In vivo inhibition of Nrf2-Keap1 Kelch domain protein-protein interaction in po dosed Wistar rat kidney assessed as increase in HO-1 protein level incubated for 6 hrs by ELISA assay; assay type: functional, organism-based; settings: dose 3-30 mg/kg

Sequence of Keap1/Nrf2 (Q16236 whole entry, the tested form may be a part): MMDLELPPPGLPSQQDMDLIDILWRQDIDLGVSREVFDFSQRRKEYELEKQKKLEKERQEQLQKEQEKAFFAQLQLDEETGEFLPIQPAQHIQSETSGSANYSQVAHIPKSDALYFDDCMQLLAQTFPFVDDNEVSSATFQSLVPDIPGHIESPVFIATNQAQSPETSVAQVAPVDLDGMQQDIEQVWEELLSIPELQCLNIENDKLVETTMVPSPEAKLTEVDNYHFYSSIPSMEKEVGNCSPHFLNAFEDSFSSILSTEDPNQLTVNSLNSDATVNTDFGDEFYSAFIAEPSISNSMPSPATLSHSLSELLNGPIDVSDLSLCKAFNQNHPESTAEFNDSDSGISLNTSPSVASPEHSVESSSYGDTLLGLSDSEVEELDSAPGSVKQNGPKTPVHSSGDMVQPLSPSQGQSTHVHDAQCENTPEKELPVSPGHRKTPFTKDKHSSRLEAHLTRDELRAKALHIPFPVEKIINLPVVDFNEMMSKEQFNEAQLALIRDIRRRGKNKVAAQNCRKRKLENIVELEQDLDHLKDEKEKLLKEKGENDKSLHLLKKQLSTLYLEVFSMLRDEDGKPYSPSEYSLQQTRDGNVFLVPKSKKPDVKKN
Sequence of Keap1/Nrf2 (Q14145 whole entry, the tested form may be a part): as the sequence (Q14145 whole entry, the tested form may be a part) above

**Q.** For `Cc1ccc([C@@H](NC(=O)Cc2ccc3c(c2)CCCC3)[C@H](C)C(=O)O)cc1`, which IC50 [1] is on record?
**A.** 51 µM

**Q.** Which IC50 [1] does the source give for `Cc1ccc([C@@H](NC(=O)[C@H](O)c2ccccc2)[C@@H](C)C(=O)O)cc1` here?
**A.** > 100 µM

**Q.** And the Papp at 2 h, 25 µM [2]?
**A.** 0.27 ×10⁻⁶ cm/s

**Q.** What does the source list for `COc1ccc(S(=O)(=O)Nc2ccc(N3CCCCCC3)cc2C(=O)O)cc1`?
**A.** IC50 [1]: 37 µM; remaining at 1 h, 5 µM [3]: 0%; solubility at 4 h [4]: ≥ 475 µM; solubility at 4 h [5]: 424 µM (≈ 172 µg/mL); remaining at 1 h, 5 µM [6]: 0%; Papp at 2 h, 25 µM [2]: 13 ×10⁻⁶ cm/s

**Q.** For `Cc1ccc(C(NC(=O)Cc2ccc3c(c2)CCCC3)C2(C(=O)O)CC2)cc1` (stereo not given), which IC50 [1] is on record?
**A.** 54 µM

**Q.** For `Cc1ccc([C@@H](NC(=O)[C@@H](O)c2ccccc2)[C@@H](C)C(=O)O)cc1`, which IC50 [1] is on record?
**A.** 96 µM

**Q.** What about the Papp at 2 h, 25 µM [2] of the same compound?
**A.** 0.26 ×10⁻⁶ cm/s

**Q.** For `Cc1ccc([C@H](CC(=O)O)NC(=O)Cc2ccc3c(c2)CCCC3)cc1`, which IC50 [1] is on record?
**A.** 39 µM

**Q.** And the deltaH [7]?
**A.** -4.5 kcal/mol

**Q.** What about the -TdeltaS [8] of the same compound?
**A.** -2.2 kcal/mol

**Q.** And the deltaG [9]?
**A.** -6.7 kcal/mol

**Q.** With `CC[C@@H](C(=O)O)[C@H](NC(=O)Cc1ccc2c(c1)CCCC2)c1ccc(C)cc1` as the compound, how does the IC50 [1] read?
**A.** 55 µM

**Q.** What does the source list for `CO[C@H](C(=O)N[C@H](c1ccc(C)cc1)[C@@H](C)C(=O)O)c1ccccc1`?
**A.** IC50 [1]: > 100 µM; Papp at 2 h, 25 µM [2]: 3.4 ×10⁻⁶ cm/s

**Q.** Which IC50 [1] does the source give for `Cc1ccc(C(CC(=O)O)NC(=O)Cc2ccc3c(c2)CCCC3)cc1` (stereo not given) here?
**A.** 40 µM

**Q.** And the remaining at 1 h, 5 µM [3]?
**A.** 95%

**Q.** What about the solubility at 4 h [4] of the same compound?
**A.** 432 µM (≈ 152 µg/mL)

**Q.** What about the solubility at 4 h [5] of the same compound?
**A.** 469 µM (≈ 165 µg/mL)

**Q.** And the remaining at 1 h, 5 µM [6]?
**A.** 85%

**Q.** What about the Papp at 2 h, 25 µM [2] of the same compound?
**A.** 17 ×10⁻⁶ cm/s

**Q.** What does the source list for `Cc1ccc([C@@H](NC(=O)[C@H](F)c2ccccc2)[C@@H](C)C(=O)O)cc1`?
**A.** IC50 [1]: 90 µM; Papp at 2 h, 25 µM [2]: 6.6 ×10⁻⁶ cm/s

**Q.** What does the source list for `Cc1ccc([C@@H](NC(=O)Cc2ccc3c(c2)CCCC3)[C@@H](C)C(=O)O)cc1`?
**A.** IC50 [1]: 2.8 µM; deltaH [7]: -4.3 kcal/mol; IC50 [10]: 56 µM; -TdeltaS [8]: -3.7 kcal/mol; Papp at 2 h, 25 µM [2]: 25 ×10⁻⁶ cm/s; deltaG [9]: -8 kcal/mol

**Q.** Which IC50 [1] does the source give for `Cc1ccc([C@@H](NC(=O)[C@@H](F)c2ccccc2)[C@@H](C)C(=O)O)cc1` here?
**A.** 3.5 µM

**Q.** And the IC50 [10]?
**A.** 36 µM

**Q.** What about the Papp at 2 h, 25 µM [2] of the same compound?
**A.** 12 ×10⁻⁶ cm/s

**Q.** For `Cc1ccc([C@@H](CC(=O)O)NC(=O)Cc2ccc3c(c2)CCCC3)cc1`, which IC50 [1] is on record?
**A.** > 100 µM

**Q.** For `Cc1ccc([C@@H](NC(=O)[C@@H](F)c2ccc3c(c2)CCCC3)[C@@H](C)C(=O)O)cc1`, which IC50 [1] is on record?
**A.** 0.089 µM

**Q.** What about the remaining at 1 h, 5 µM [3] of the same compound?
**A.** 87%

**Q.** What about the Vd [11] of the same compound?
**A.** 0.18 L/kg

**Q.** What about the AUC at 25 h [12] of the same compound?
**A.** 324 µM·h

**Q.** And the solubility at 4 h [4]?
**A.** ≥ 475 µM

**Q.** What about the solubility at 4 h [5] of the same compound?
**A.** 303 µM (≈ 116 µg/mL)

**Q.** And the remaining at 1 h, 5 µM [6]?
**A.** 70%

**Q.** What about the IC50 [10] of the same compound?
**A.** 2 µM

**Q.** And the -TdeltaS [8]?
**A.** -1.2 kcal/mol

**Q.** What about the clearance [13] of the same compound?
**A.** 0.5 mL/min/kg

**Q.** And the MRT [14]?
**A.** 5.6 h

**Q.** And the Papp at 2 h, 25 µM [2]?
**A.** 33 ×10⁻⁶ cm/s

**Q.** And the half-life [15]?
**A.** 4.5 h

**Q.** What about the Tmax [16] of the same compound?
**A.** 1.3 h

**Q.** What about the AUC at 25 h [17] of the same compound?
**A.** 79 µM·h

**Q.** And the bioavailability [18]?
**A.** 136%

**Q.** And the MRT [19]?
**A.** 10 h

**Q.** What about the inhibition [20] of the same compound?
**A.** Dose-Dependent Effect

**Q.** For `Cc1ccc(C(NC(=O)Cc2ccc3c(c2)CCCC3)C(C)(C)C(=O)O)cc1` (stereo not given), which IC50 [1] is on record?
**A.** 17 µM

**Q.** With `Cc1ccc([C@@H](NC(=O)Cc2ccccc2)[C@@H](C)C(=O)O)cc1` as the compound, how does the IC50 [1] read?
**A.** 67 µM

**Q.** And the Papp at 2 h, 25 µM [2]?
**A.** 2.3 ×10⁻⁶ cm/s

**Q.** For `CC[C@H](C(=O)O)[C@H](NC(=O)Cc1ccc2c(c1)CCCC2)c1ccc(C)cc1`, which IC50 [1] is on record?
**A.** 99 µM

**Q.** Which results are given for `Cc1ccc([C@@H](NC(=O)C(F)(F)c2ccccc2)[C@@H](C)C(=O)O)cc1`?
**A.** IC50 [1]: 8.9 µM; IC50 [10]: 66 µM; Papp at 2 h, 25 µM [2]: 15 ×10⁻⁶ cm/s

**Q.** Which results are given for `Cc1ccc([C@@H](NC(=O)C(=O)c2ccccc2)[C@@H](C)C(=O)O)cc1`?
**A.** IC50 [1]: > 100 µM; Papp at 2 h, 25 µM [2]: 1.7 ×10⁻⁶ cm/s

**Q.** For `CO[C@@H](C(=O)N[C@H](c1ccc(C)cc1)[C@@H](C)C(=O)O)c1ccccc1`, which IC50 [1] is on record?
**A.** 83 µM

From ChEMBL document CHEMBL5257130, “Methyl and Fluorine Effects in Novel Orally Bioavailable Keap1-Nrf2 PPI Inhibitor” (ACS Med Chem Lett, 2023)
